Data published in US20240076297A1, “ADENOSINE A2A AND A2B RECEPTOR DUAL ANTAGONISTS FOR IMMUNO-ONCOLOGY” (Merck Sharp & Dohme LLC, priority 2020, published 2024).

Columns and labels:
[1] = target: T1, human A2A adenosine receptor (Homo sapiens (Human), UniProt P29274); test: A2A binding affinity using SPA, Method (B); conditions: [3H] SCH58261, A2A receptor-expressing membranes
Description: (§1) Method (A) describes the procedure used to measure A2A binding affinity using radioligand binding. Method (B) describes the procedure used to measure A2A binding affinity using SPA technology. The method used to measure A2B binding affinity is also described below. The method used to determine the A2A IC50 value reported for each compound in the table is indicated next to the reported value. The A2B IC50 value measured using the A2B binding affinity assay is shown in the table next to the compound under the corresponding A2A value.
The A2A receptor affinity binding assay measured the amount of binding of a tritiated ligand with high affinity for the A2A adenosine receptor to membranes made from HEK293 or CHO cells recombinantly expressing the human A2A adenosine receptor, in the presence of varying concentrations of a compound of the invention. The data were generated using either filtration binding or a homogenous scintillation proximity assay (SPA).
Method (B): Measurement of A2A Binding Affinity Using SPA
Binding affinity using SPA was conducted as follows. Test compounds (50 nL) were dispensed into individual wells of a 384-well OptiPlate™ well (Perkin Elmer) by Echo® acoustic liquid transfer (Labcyte). 20 μL of 1.25 nM [^3H] SCH58261 ((7-(2-phenylethyl)-5-amino-2-(2-furyl)-pyrazolo-[4,3-e]-1,2,4-triazolo[1,5-c]pyrimidine)) in DPBS assay buffer (Dulbecco's phosphate buffered saline without calcium and magnesium, ThermoFisher Scientific, Cat. No. A1285601) supplemented with 10 mM MgCl2 was added. A2A receptor-expressing membranes were incubated with 20 μg/mL adenosine deaminase (Roche, Cat. No. 10 102 105 001) for 15 min at room temperature. The receptor-expressing membranes were then combined with wheat germ agglutinin-coated yttrium silicate SPA beads (GE Healthcare, Cat. No. RPNQ0023) in a ratio of 1:1000 (w/w) and incubated for 30 min at room temperature. 30 μL of the membrane/bead mixture (0.25 μg and 25 μg per well respectively) were added to the 384-well OptiPlate™ well. To define total and non-specific binding, wells containing 1% DMSO or 1 μM CGS15943 (Tocris Bioscience, Cat. No. 1699) respectively were also included in the experiment. The plate was incubated for 1 h at room temperature with agitation. The assay plate was then incubated for an h to allow the beads to settle before data were collected using a TopCount® (Perkin Elmer) scintillation counter. After normalization to total and non-specific binding, the percent effect at each compound concentration was calculated. The plot of percent effect versus the log of compound concentration was analyzed electronically using a 4-parameter logistic fit based on the Levenberg-Marquardt algorithm to generate IC50 values.

[2] = target: T1, human A2A adenosine receptor; test: A2A binding affinity using radioligand binding, Method (A); conditions: Method (A): filtration radioligand binding, [3H] SCH58261, membranes expressing human A2A
Method in brief: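 Filtration binding used HEK293 or CHO membranes (5 μg/mL) preincubated with compound for 15–30 min at RT. [3H]SCH58261 (4 nM working solution) was added in Tris pH 7.4/10 mM MgCl2/0.005% Tween20 for 60 min at RT, with 1 μM ZM241385 defining nonspecific binding. Scintillation counts gave IC50 via 4-parameter logistic fit.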

[3] = target: human A2B adenosine receptor (Homo sapiens (Human), UniProt P29275); test: A2B binding affinity, radioligand filtration binding assay; conditions: HEK293 membranes expressing human A2B, tritiated proprietary antagonist
Chain of human A2B adenosine receptor (P29275 whole entry): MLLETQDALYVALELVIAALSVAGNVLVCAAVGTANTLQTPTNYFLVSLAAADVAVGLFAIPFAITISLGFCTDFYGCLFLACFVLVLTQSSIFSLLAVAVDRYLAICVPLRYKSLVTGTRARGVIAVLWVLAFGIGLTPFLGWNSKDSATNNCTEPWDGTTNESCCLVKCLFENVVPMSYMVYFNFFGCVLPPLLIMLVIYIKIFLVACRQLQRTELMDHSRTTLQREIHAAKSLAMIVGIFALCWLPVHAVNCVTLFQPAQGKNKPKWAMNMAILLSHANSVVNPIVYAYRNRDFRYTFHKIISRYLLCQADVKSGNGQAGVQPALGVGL
Description: as §1
Measurement of A2B Binding Affinity
The reported affinity of the compounds of the invention for the human A2B adenosine receptor was determined experimentally using a radioligand filtration binding assay. This assay measures the amount of binding of a tritiated proprietary A2B receptor antagonist, in the presence and absence of a compound of the invention, to membranes made from HEK293 cells recombinantly expressing the human A2B adenosine receptor (Perkin Elmer, Cat. No. ES-013-C).
148 μL (135 μg/mL) membranes and 2 μL test compounds were transferred to individual wells of a 96-well polypropylene assay plate and incubated for 15 to 30 min at room temperature with agitation. Tritiated radioligand was diluted to a concentration of 14 nM in assay buffer (phosphate buffered saline without Magnesium and Calcium, pH 7.4; GE Healthcare Life Sciences, Cat. No. SH30256.01) and then 50 μL of the solution were transferred to each well of the assay plate. To define total and non-specific binding, wells containing 1% DMSO and 20 μM N-ethylcarboxamidoadenosine (Tocris Bioscience, Cat. No. 1691) respectively, were also included. The wells of the assay plate were incubated at room temperature for 60 min with agitation, then filtered using a FilterMate Harvester® (Perkin Elmer) or similar equipment through a UniFilter-96@ PEI coated plate (Perkin Elmer Cat. No. 6005274 or 6005277). Filtering was achieved by aspirating the contents of the assay plate for 5 sec, then washing and aspirating the contents three times with ice-cooled wash buffer (assay buffer supplemented with 0.0025% Brij58) and allowing the vacuum manifold to dry the plate for 30 sec. The filter plate was incubated for at least 1 h at 55° C. and allowed to dry. The bottom of the filter plate was then sealed with backing tape. 40 μL Ultima Gold™ (Perkin Elmer, Cat. No. 6013329) was added to each well of the filter plate and the top of the plate was sealed with TopSeal-A PLUS® clear plate seal (Perkin Elmer, Cat. No. 6050185). The plates were then incubated for at least 20 min, and then the amount of radioactivity remaining in each well was determined using a TopCount® (Perkin Elmer) scintillation counter. After normalization to total and non-specific binding, the percent effect at each compound concentration was calculated. The plot of percent effect versus the log of compound concentration was analyzed electronically using a 4-parameter logistic fit based on the Levenberg-Marquardt algorithm to generate IC50 values.

T1 sequence (P29274 whole entry): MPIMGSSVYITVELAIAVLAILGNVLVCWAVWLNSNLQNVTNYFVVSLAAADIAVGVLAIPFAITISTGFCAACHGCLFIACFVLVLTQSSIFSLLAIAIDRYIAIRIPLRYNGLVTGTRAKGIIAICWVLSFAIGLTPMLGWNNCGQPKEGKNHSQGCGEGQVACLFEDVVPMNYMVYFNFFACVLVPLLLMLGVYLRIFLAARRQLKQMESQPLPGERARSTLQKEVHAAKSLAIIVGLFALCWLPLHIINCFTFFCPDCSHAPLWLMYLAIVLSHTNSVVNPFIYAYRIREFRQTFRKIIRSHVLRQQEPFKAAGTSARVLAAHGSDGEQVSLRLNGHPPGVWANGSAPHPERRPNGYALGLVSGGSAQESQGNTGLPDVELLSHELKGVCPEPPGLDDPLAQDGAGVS

SMILES	IC50 [1]	IC50 [2]	IC50 ([3]; value given with marker (A))	IC50 ([3]; value given with marker (B))
COc1cccc2c1nc(N)n1nc(COCc3ccc(F)cc3)nc21 [Example 4.4, 2-(((4-fluorobenzyl)oxy)methyl)-7-methoxy-[1,2,4]triazolo[1,5-c]quinazolin-5-amine]	4.7 nM	–	–	–
COc1cccc2c1nc(N)n1nc(CO[C@H](C)c3ccc(F)cc3)nc21 [Example 4.6, (R)-2-((1-(4-fluorophenyl)ethoxy)methyl)-7-methoxy-[1,2,4]triazolo[1,5-c]quinazolin-5-amine]	8.3 nM	–	–	–
COc1cccc2c1nc(N)n1nc(CCCCl)nc21 [Example 1.1, 2-(3-chloropropyl)-7-methoxy-[1,2,4]triazolo[1,5-c]quinazolin-5-amine]	15.5 nM	–	–	–
COc1cccc2c1nc(N)n1nc(COCCF)nc21 [Example 4.12, 2-((2-fluoroethoxy)methyl)-7-methoxy-[1,2,4]triazolo[1,5-c]quinazolin-5-amine]	7.2 nM	–	–	–
CCOCc1nc2c3cccc(OC)c3nc(N)n2n1 [Example 4.2, 2-(ethoxymethyl)-7-methoxy-[1,2,4]triazolo[1,5-c]quinazolin-5-amine]	8.7 nM	–	–	–
COc1cccc2c1nc(N)n1nc(CO[C@@H](C)c3ccc(F)cc3)nc21 [Example 4.7, (S)-2-((1-(4-fluorophenyl)ethoxy)methyl)-7-methoxy-[1,2,4]triazolo[1,5-c]quinazolin-5-amine]	4.6 nM	–	–	–
COc1cccc2c1nc(N)n1nc(COCc3ccsc3)nc21 [Example 4.3, 7-methoxy-2-((thiophen-3-ylmethoxy)methyl)-[1,2,4]triazolo[1,5-c]quinazolin-5-amine]	2.7 nM	–	–	–
COc1cccc2c1nc(N)n1nc(CCCSc3ccc(C(F)(F)F)cc3)nc21 [Example 1.2, 7-methoxy-2-(3-((4-(trifluoromethyl)phenyl)thio)propyl)-[1,2,4]triazolo[1,5-c]quinazolin-5-amine]	8.4 nM	–	–	–
COc1cccc2c1nc(N)n1nc(COC(C)C)nc21 [Example 4.13, 2-(isopropoxymethyl)-7-methoxy-[1,2,4]triazolo[1,5-c]quinazolin-5-amine]	5.7 nM	–	–	–
COc1cccc2c1nc(N)n1nc(COCc3csc4ccccc34)nc21 [Example 4.8, 2-((benzo[b]thiophen-3-ylmethoxy)methyl)-7-methoxy-[1,2,4]triazolo[1,5-c]quinazolin-5-amine]	2.9 nM	–	–	–
COc1cccc2c1nc(N)n1nc(CSCc3ccc(F)cc3)nc21 [Example 1.3, 2-(((4-fluorobenzyl)thio)methyl)-7-methoxy-[1,2,4]triazolo[1,5-c]quinazolin-5-amine]	7.3 nM	–	–	–
COc1cccc2c1nc(N)n1nc(COCC(F)(F)F)nc21 [Example 4.11, 7-methoxy-2-((2,2,2-trifluoroethoxy)methyl)-[1,2,4]triazolo[1,5-c]quinazolin-5-amine]	3.5 nM	–	–	–
COc1cccc2c1nc(N)n1nc(COCc3ccc(C(C)(C)O)cc3)nc21 [Example 4.15, 2-(4-(((5-amino-7-methoxy-[1,2,4]triazolo[1,5-c]quinazolin-2-yl)methoxy)methyl)phenyl)propan-2-ol]	–	0.2 nM	10 nM	–
COc1cccc2c1nc(N)n1nc(CCS(C)(=O)=O)nc21 [Example 13.17, 7-methoxy-2-(2-(methylsulfonyl)ethyl)-[1,2,4]triazolo[1,5-c]quinazolin-5-amine]	–	28.1 nM	410 nM	–
COc1cccc2c1nc(N)n1nc([C@H](C)CO)nc21 [Example 17.4, (S)-2-(5-amino-7-methoxy-[1,2,4]triazolo[1,5-c]quinazolin-2-yl)propan-1-ol]	–	145 nM	–	1070 nM
COc1cc2nc(N)n3nc(CCS(=O)(=O)c4ccc(F)cc4)nc3c2cc1F [Example 13.13, 9-fluoro-2-(2-((4-fluorophenyl)sulfonyl)ethyl)-8-methoxy-[1,2,4]triazolo[1,5-c]quinazolin-5-amine]	–	57.7 nM	1040 nM	–
COc1cccc2c1nc(N)n1nc(CC(C)(C)O)nc21 [Example 18.2, 1-(5-amino-7-methoxy-[1,2,4]triazolo[1,5-c]quinazolin-2-yl)-2-methylpropan-2-ol]	–	30.8 nM	–	128 nM
COc1cc2nc(N)n3nc(CCS(=O)(=O)c4ccccc4)nc3c2cc1F [Example 6.2, 9-fluoro-8-methoxy-2-(2-(phenylsulfonyl)ethyl)-[1,2,4]triazolo[1,5-c]quinazolin-5-amine]	–	4.8 nM	455 nM	–
COc1cccc2c1nc(N)n1nc(CCC3CCc4c(nnn4C4CC(F)(F)C4)C3)nc21 (single isomer, unassigned) [Example 5.3B, (R or S)-2-(2-(1-(3,3-difluorocyclobutyl)-4,5,6,7-tetrahydro-1H-benzo[d][1,2,3]triazol-5-yl)ethyl)-7-methoxy-[1,2,4]triazolo-[1,5-c]quinazolin-5-amine]	–	0.9 nM	3.1 nM	–
COc1cc2nc(N)n3nc(CC(C)S(C)(=O)=O)nc3c2cc1F (single isomer, unassigned) [Example 13.2A, (S or R)-9-fluoro-8-methoxy-2-(2-(methylsulfonyl)propyl)-[1,2,4]triazolo[1,5-c]quinazolin-5-amine]	–	0.7 nM	61.4 nM	–
COc1cc(F)cc2c1nc(N)n1nc(CCC3CCc4nn(C(C)C)cc4C3)nc21 (single isomer, unassigned) [Example 5.4A, (S or R)-9-fluoro-2-(2-(2-isopropyl-4,5,6,7-tetrahydro-2H-indazol-5-yl)ethyl)-7-methoxy-[1,2,4]triazolo[1,5-c]quinazolin-5-amine]	–	1.9 nM	9.4 nM	–
COc1cc(F)cc2c1nc(N)n1nc(CCS(=O)(=O)CC(C)C)nc21 [Example 13.11, 9-fluoro-2-(2-(isobutylsulfonyl)ethyl)-7-methoxy-[1,2,4]triazolo[1,5-c]quinazolin-5-amine]	–	28.8 nM	666 nM	–
COc1cccc2c1nc(N)n1nc(CS(=O)(=O)c3ccccc3)nc21 [Example 6.6, 7-methoxy-2-((phenylsulfonyl)methyl)-[1,2,4]triazolo-[1,5-c]quinazolin-5-amine]	–	4.2 nM	–	3780 nM
COc1ccc2c(c1)nc(N)n1nc(CCS(=O)(=O)CC(C)C)nc21 [Example 13.8, 2-(2-(isobutylsulfonyl)ethyl)-8-methoxy-[1,2,4]triazolo-[1,5-c]quinazolin-5-amine]	–	76.9 nM	894 nM	–
